According to US12018172B2, “Sidechain functionalized organosiloxanes, coating compositions containing sidechain functionalized organosiloxanes, coated articles, and methods of making and methods of use thereof” (Adaptive Surface Technologies, Inc., priority 2018, dated 2024):

Assay: Biocide miscibility screening
Assay type: physicochemical
Conditions: 50:50 mixture, 24 hrs
Description: Each component was mixed as 50:50 (based on active solids) mixture. The content was allowed to sit for 24 hrs before photographing.

Structure (SMILES) | Miscibility of Econea and SeaNine 211N with each other | Miscibility with AM-14 | Miscibility with AM-24 | Miscibility with PDMS (silanol)
N#Cc1c(-c2ccc(Cl)cc2)[nH]c(C(F)(F)F)c1Br [Econea, Tralopyril 4-bromo-2-(4-chlorophenyl)-5-(trifluoromethyl)-1H-pyrrole-3-carbonitrile] | not miscible | only partially miscible | good miscibility | only partially miscible
CCCCCCCCn1sc(Cl)c(Cl)c1=O [SeaNine 211N, 4,5-Dichloro-2-n-octyl-4-isothiazolin-4-one] | not miscible | miscible | miscible | did not show complete miscibility
